Assay results as given in patent US12410152B2, “Oxazole and thioazole-type cullin ring ubiquitin ligase compounds and uses thereof” (Proxygen GmbH, priority 2019, dated 2025).

How the values were obtained:
Type in all cases: cell-based
UBE2M mutant KBM7 cells = assay: cells
Procedure: KBM7 cells with the specified genetic backgrounds were grown in IMDM supplemented with 10% FBS and 1% penicillin/streptomycin (pen/strep). AsPC1, HCT116, NCI-H446 and 293T cells were grown in DMEM 10% FBS and 1% pen/strep. MV4; 11, Jurkat and Be (2) C cells were grown in RPMI 10% FBS 1% pen/strep. KBM7, AsPC1 and HCT116 cells expressing Cas9 were generated using the plasmid Lenti_Cas9_Blasti (Addgene #52962). The lentiviral plasmid lentiGuide-Puro (Addgene #52963) was used to express sgRNAs against the genes UBE2M (in KBM7-Cas9, AsPC1-Cas9 and HCT116-Cas9 cells), UBE2G1 (in KBM7-Cas9 cells) and […] (in KBM7-Cas9 cells). The lentiviral plasmid lentiGuide-Puro-IRES-mCherry (modified from Addgene #52963) was used to express sgRNAs against CUL4A (in KBM7-Cas9 cells). The lentiviral plasmid pLenti-PGK-Hygro-DEST-UBE2M was generated by Gateway cloning (empty destination vector Addgene #19066), and used to generate UBE2M^resc KBM7 cells. […]
Following this observation, it was rationalized that novel small molecule degraders can be identified in an unbiased manner, simply by searching for compounds that lose activity in the absence of UBE2M. 2000 small molecules, mostly of unknown function/target, were tested for their antiproliferative effects in human leukemia cells (KBM7). These cells were either transduced with a control sgRNA (KBM7WT), or with an sgRNA targeting UBE2M, leading to a hypomorph (deletion of six amino acids) with a functional impairment (UBE2Mmut).
Finally, a total of structurally similar analogs was tested to unravel structure-activity relationship of the identified molecules. To that end, their anti-cancer activity was assayed in WT cells, as well as KBM7 cells deficient in genes identified in the genome-wide CRISPR screens (UBE2M, CUL4B, UBE2G1). Moreover, the compounds were also tested in AsPC1 pancreatic cancer cells (WT or UBE2Mmut), MV4; 11 and Jurkat leukemia cells, Be (2) C neuroblastoma cells, and NCI-H446 lung cancer cells (Table 3 at the end of this document)
KBM7^WT, mutant KBM7 clones (UBE2M^mut, UBE2M^resc, UBE2G1^mut CUL4A^mut, CUL4B^mut), and 3-day doxycycline pretreated KBM7^iCas9_sgDDB1 cells were seeded at a cell density of 50,000 cells/mL in 96-well plates with DMSO or drug, in triplicates. Drugs used: IC020772.1/IC020772.1X, IC021313.2/IC021313.2X, T6938051/T6938051X or THZ531. Cells were treated for 3 days, after which cell viability was assessed according to manufacturer's protocol (CellTiter Glo, Promega G7570). Survival curves and EC50 values were calculated by best-fit analysis of the log 10 drug concentration to fold change of drug-treated cells over DMSO-treated cells. All survival assays included technical triplicates per sample, per experiment.

[1] = system: T1, cyclin K (CCNK) (Homo sapiens); assay: CCNK destabilization/degradation (expression proteomics and Western blot); conditions: wild-type KBM7 cells
T1 construct: endogenous in cells; host or cells: KBM7 cells (WT and UBE2M/CUL4B/UBE2G1 mutant clones)
Procedure: (§1) The hypomorphic phenotype of the mutated UBE2M allele in KBM7 cells (KBM7 UBE2M^mut cells) was assessed. In this regard, CRISPR/Cas9-induced mutation of UBE2M inactivated CRL activity including CRL4^CRBN and CRL2^VHL. […] Additionally, CCNK destabilization by all three compounds was validated via time-resolved immunoblots wherein CCNK degradation was evident after two hours (FIG. 19c).
(§2) Subsequently, a total of 53 structurally related analogue compounds in dose-ranging viability assays in KBM7 wildtype- and UBE2M^mut cells was tested to develop a structure-activity relationship for the assayed compounds. This informed on sites amenable for derivatization of analogs (FIG. 20a), and also to the identification of structurally similar small molecules with no measurable activity that are thus suited negative controls. […] CRL activity-dependent degradation of CCNK could be rescued by pharmacologic NAE inhibition and by blocking the ubiquitin activating enzyme UBA1, particularly by pretreating the cells with 1 μM carfilzomib (Selleckchem, S2853), 1 μM MLN4924 (Selleckchem, S7109), 10 μM TAK-243 (MedChemExpress, HY-100487) or 1 μM THZ531 (MedChemExpress HY-103618) (FIG. 19d). Furthermore, treatment with the selective covalent CDK12/13 inhibitor THZ531, which binds to the ATP binding pocket of CDK12/13, rescued CCNK degradation (FIG. 19d) indicating the role of the active site of CDK12/13 for CRL activity-dependent CCNK degradation by the identified compounds (FIG. 19d).
(§3) PBS-washed cell pellets were lysed in 50 mM Tris pH 7.9, 8M Urea and 1% CHAPS and incubated with shaking at 4° C. for at least 30 min. 20 μg of supernatants were run and transferred for detection. Antibodies used: CUL1 (Santa Cruz Biotechnology, sc-1276), CUL2 (Sigma-Aldrich, SAB2501565-100), CUL3 (Cell Signaling Technology, 2759), CUL4A (Cell Signaling Technology, 2699S), CUL4B (Proteintech, 12916-1-AP), CUL5 (Santa Cruz Biotechnology, sc-373822), UBE2M (Santa Cruz Biotechnology, sc-390064), DDB1 (Cell Signaling Technology, 5428S), CCNK (Bethyl, A301-939A), CDK12 (Cell Signaling Technology, 11973S), CDK13 (Bethyl, A301-458A), RBM39 (1:500, Santa Cruz Biotechnology sc-376531), V5 (Cell Signaling Technology, 13202), Ubiquityl-Histone H2A (K119) (Cell Signaling, 8240-20). ACTIN (Sigma-Aldrich, A5441), VINCUL1N (Santa Cruz Biotechnology, sc-25336). Secondary antibodies anti-mouse/rabbit/goat (Jackson ImmunoResearch 115-035-003, 111-035-003 and 705-035-003).
(§4) Comparison of overall proteome-wide changes in KBM7 cells treated with IC020772.1 (2.5 μM), IC021313.2 (7 μM) or T6938051 (3.5 μM) for 5 h and 12h, using quantitative proteomics based on isobaric tagging.

cyclin K (CCNK) = target: T2, cyclin K (CCNK) (Homo sapiens, UniProt Q16531+Q9NYV4); assay: as above; conditions: for effect on CCNK upon inactivation of DDB1, UBE2G1 and UBE2M: CRISPR-inactivated KBM7 cells
T2 construct: endogenous in cells; host or cells: KBM7 cells (WT and UBE2M/CUL4B/UBE2G1 mutant clones)
Procedure: as §1, §2, §3, §4

T2 sequence (O75909 whole entry partner): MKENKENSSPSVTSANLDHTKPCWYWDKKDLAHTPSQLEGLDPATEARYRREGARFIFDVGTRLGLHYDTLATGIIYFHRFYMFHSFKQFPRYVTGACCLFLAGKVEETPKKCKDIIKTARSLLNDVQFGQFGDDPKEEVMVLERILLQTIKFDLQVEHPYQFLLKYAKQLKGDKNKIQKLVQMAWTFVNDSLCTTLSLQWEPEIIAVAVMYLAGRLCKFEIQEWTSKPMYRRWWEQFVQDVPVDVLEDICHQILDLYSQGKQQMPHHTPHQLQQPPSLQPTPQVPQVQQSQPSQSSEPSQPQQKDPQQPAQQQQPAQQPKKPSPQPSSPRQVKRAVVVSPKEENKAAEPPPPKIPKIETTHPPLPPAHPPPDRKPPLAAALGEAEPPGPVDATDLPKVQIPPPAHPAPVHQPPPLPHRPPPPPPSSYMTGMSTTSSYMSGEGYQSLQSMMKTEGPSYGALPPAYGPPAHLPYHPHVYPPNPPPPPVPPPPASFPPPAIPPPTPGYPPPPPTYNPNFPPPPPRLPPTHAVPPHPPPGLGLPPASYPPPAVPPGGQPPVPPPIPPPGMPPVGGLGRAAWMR
T2 sequence (Q9NYV4 whole entry): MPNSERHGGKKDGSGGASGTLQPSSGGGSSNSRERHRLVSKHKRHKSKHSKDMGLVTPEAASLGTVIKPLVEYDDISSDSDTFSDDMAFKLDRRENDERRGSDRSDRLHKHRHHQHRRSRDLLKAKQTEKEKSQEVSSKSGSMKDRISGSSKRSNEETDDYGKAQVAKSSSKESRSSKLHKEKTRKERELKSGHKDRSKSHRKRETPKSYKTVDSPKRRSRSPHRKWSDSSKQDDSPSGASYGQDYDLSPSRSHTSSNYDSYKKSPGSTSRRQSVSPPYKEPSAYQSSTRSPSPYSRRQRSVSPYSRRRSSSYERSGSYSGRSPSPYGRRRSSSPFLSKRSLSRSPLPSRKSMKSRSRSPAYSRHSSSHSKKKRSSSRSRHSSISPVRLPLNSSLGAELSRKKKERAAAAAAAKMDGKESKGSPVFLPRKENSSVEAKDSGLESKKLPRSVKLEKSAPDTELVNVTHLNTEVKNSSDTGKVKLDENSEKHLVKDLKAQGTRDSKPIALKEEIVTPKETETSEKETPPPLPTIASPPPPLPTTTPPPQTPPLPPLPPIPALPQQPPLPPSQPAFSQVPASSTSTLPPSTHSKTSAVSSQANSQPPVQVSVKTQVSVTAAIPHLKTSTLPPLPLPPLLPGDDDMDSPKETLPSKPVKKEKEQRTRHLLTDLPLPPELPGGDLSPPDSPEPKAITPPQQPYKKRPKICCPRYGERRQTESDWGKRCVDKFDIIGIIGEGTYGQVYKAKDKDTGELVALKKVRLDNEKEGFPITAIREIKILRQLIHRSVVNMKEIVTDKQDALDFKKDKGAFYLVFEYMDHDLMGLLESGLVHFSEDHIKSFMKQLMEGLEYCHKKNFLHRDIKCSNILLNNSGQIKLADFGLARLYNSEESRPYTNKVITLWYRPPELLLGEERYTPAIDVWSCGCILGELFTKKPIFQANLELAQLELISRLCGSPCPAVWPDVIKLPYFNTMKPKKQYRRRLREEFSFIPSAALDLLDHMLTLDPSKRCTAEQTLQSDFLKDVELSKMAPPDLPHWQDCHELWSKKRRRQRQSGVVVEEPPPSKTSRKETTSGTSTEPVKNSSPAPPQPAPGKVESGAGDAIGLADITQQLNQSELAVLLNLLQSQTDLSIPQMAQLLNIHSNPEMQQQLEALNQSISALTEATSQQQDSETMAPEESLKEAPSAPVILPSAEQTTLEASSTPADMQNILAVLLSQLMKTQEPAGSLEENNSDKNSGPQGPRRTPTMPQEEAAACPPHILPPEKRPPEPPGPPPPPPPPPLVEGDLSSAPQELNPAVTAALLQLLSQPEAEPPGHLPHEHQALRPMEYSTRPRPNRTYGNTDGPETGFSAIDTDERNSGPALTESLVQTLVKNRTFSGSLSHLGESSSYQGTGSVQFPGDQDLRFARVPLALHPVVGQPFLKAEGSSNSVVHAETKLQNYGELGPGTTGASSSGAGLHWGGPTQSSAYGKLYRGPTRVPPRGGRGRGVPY
T2 sequence (Q16531 2-1140 limits assumed): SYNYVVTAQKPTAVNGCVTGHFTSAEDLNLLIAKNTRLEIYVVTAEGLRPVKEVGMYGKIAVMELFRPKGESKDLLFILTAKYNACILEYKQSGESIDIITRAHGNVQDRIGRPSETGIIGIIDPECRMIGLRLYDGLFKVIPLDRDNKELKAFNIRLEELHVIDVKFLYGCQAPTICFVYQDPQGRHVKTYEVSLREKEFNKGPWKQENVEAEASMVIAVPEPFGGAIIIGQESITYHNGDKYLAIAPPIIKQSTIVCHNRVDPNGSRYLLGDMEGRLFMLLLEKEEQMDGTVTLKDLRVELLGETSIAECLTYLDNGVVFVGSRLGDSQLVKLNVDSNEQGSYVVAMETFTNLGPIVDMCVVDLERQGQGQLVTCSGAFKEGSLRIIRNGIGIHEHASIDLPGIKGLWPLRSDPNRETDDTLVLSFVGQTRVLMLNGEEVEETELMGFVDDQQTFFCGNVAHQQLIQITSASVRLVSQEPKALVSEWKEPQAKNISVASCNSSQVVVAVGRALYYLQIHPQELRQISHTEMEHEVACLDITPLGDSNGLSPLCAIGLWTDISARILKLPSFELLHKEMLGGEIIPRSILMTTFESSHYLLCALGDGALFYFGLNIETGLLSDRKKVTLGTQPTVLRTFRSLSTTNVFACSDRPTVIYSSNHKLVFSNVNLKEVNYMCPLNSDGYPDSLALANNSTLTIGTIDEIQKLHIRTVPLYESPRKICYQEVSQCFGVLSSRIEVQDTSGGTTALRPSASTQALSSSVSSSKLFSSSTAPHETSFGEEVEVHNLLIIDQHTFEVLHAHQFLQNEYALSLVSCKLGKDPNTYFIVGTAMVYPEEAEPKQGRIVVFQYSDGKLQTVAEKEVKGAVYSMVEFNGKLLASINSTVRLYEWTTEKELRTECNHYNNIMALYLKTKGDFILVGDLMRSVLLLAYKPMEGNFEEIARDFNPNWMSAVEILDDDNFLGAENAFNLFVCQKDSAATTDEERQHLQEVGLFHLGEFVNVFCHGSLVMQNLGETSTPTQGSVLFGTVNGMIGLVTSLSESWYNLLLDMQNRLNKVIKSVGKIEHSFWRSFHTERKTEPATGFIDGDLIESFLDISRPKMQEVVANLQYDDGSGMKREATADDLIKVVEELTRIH
T2 sequence (Q13620 whole entry partner): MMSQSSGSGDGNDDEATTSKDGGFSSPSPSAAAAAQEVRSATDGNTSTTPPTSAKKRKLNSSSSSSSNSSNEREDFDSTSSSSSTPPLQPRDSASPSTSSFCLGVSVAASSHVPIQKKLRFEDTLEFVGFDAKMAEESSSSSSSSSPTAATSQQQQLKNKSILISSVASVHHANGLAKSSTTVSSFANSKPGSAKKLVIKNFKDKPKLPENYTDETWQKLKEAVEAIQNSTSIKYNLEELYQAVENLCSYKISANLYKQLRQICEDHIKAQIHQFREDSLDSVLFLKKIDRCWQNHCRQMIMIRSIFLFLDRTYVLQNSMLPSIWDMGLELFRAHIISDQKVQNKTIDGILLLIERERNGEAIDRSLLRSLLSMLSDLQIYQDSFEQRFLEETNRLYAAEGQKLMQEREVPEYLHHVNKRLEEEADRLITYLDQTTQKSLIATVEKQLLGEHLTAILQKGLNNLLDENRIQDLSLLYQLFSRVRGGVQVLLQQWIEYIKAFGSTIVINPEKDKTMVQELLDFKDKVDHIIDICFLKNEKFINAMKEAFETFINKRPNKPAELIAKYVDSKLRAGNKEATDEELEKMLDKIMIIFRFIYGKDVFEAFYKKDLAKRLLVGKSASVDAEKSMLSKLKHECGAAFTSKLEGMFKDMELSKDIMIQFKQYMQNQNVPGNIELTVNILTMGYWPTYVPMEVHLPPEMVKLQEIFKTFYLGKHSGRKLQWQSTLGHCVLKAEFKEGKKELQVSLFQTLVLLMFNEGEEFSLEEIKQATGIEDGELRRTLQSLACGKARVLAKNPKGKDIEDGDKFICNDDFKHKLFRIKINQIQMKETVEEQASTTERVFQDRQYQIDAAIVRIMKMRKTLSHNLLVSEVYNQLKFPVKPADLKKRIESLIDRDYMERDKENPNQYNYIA
T2 sequence (P62877 whole entry partner): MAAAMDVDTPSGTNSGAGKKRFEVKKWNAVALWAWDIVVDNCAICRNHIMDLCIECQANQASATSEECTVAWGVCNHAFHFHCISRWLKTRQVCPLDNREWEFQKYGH
T1 sequence (O75909 whole entry partner): as the sequence (O75909 whole entry partner) above
T1 sequence (Q9NYV4 whole entry, further chain): as the sequence (Q9NYV4 whole entry) above
T1 sequence (Q16531 2-1140 limits assumed, further chain): as the sequence (Q16531 2-1140 limits assumed) above
T1 sequence (Q13620 whole entry partner): as the sequence (Q13620 whole entry partner) above
T1 sequence (P62877 whole entry partner): as the sequence (P62877 whole entry partner) above

Row | SMILES | CC50 (UBE2M mutant KBM7 cells) [µM] | CCNK destabilization [1] | effect on CCNK upon inactivation of DDB1, UBE2G1 and UBE2M (cyclin K (CCNK)) | logFC (IC021313.2/DMSO), CCNK (O75909-3) (cyclin K (CCNK); expression proteomics, drug vs DMSO, Table 4, log2FC < −0.3)
1 | O=C(CSc1nnc2c(n1)[nH]c1ccccc12)Nc1ccc(Cl)cn1 [IC020772.1] | 4.15 | destabilization of cyclin K (CCNK) | abrogated | –
2 | Cc1ccc(C(=O)N2CSCC2C(=O)N=c2[nH]cc(C)s2)o1 (stereo not shown) [Compound T6938051] | 7.04 | destabilization of cyclin K (CCNK) | abrogated | –
3 | O=C(CSc1nc2ccccc2[nH]1)Nc1ccc(Cl)cn1 [IC021313.2] | 10.7 | destabilization of cyclin K (CCNK) | abrogated | −0.873
